Reference: patent publication US5324857A, “Inhibition of the formation of nitrosamines” (Solvay Interox, priority 1992, dated 1994)

Legend:
[1] = Nitrosamine formation during oxidation of dodecyldimethylamine with hydrogen peroxide under metal stress conditions, DTPA chelant, with free radical scavenger; conditions: for Nitrosamine content, total: MDNA + NDMA; for Nitrosamine content, total / Nitrosamine content, MDNA / Nitrosamine content, NDMA: 2.0 mmoles scavenger, DTPA 0.043 mmoles, 60° C. then 75° C., total 4 hours; for Nitrosamine content, MDNA: methyldodecylnitrosamine; for Nitrosamine content, NDMA: nitrosodimethylamine; for reduction in nitrosamine formation: mixture already containing carboxylate chelating agent (DTPA), in words
Procedure: (§1) This Comparison and these Examples were each carried out using the following general method:-Dodecyldimethylamine (0.2012 moles, 42.94 g), and sufficient pure water to 150 g, ie approximately 106.9 g, were charged into a passivated 250 mL reaction flask, at ambient temperature together with 0.16 g of the stock metal solution described below to introduce 0.011 mmoles of transition metal impurities and thereby create stress conditions. A chelating agent, DTPA, viz diethylenetriaminepentacarboxylic acid, 0.043 mmoles, was then introduced into the mixture to provide a mole ratio to the metal of about 4:1.
(§2) The stock metal solution was obtained by dissolving CuSO4.5H2O, 0.393 g, MnSO4.H2O, 0.1475 g, K2CrO4, 0.0935 g, Fe(NH4)2(SO4)2.6H2O, 3.5106 g, AlK(SO4)2.12H2O, 8.791 g in 500 mL water (deionized) containing 20 mL of 10%w/w sulfuric acid solution. It contained a total of 2350 ppm metals concentration. Thus, the concentration of metals in the reaction mixture was about 2.3 ppm.
(§3) The reaction mixture was then heated to a temperature of 60° C. and stirred. An aqueous hydrogen peroxide solution, 50% w/w solution, stabilized by sodium pyrophosphate at 70 ppm calculated as PO4, 15.03 g, was then delivered into the reaction mixture at a constant slow rate during the subsequent 45 minutes. In the Examples, but not in the Comparison, the hydrogen peroxide solution also contained 2.0 mmoles of a free radical scavenger, as specified below. When all the hydrogen peroxide had been introduced, the reaction temperature was increased to 75° C. and the reaction permitted to continue for a total of 4 hours. The mixture was then cooled and analyzed for yield of amine oxide and for the production of by-product volatile nitrosamines, specifically methyldodecylnitrosamine (MDNA) and nitrosodimethylamine (NDMA).
The free radical scavengers were respectively 2,6-di-tert-butyl-4-methylphenol (BHT) in Ex2, butylated hydroxyanisole, a mixture of 2-tert-butylmethoxy anisole and 3-tert-butylmethoxy anisole (BHA) in Ex3, ethyl gallate (EtG) in Ex4 and propyl gallate (PrG) in Ex5.

[2] = Nitrosamine formation during oxidation of dodecyldimethylamine with hydrogen peroxide under metal stress conditions, CDTMPA chelant, with free radical scavenger; conditions: for Nitrosamine content, total: MDNA + NDMA; for Nitrosamine content, total / Nitrosamine content, MDNA / Nitrosamine content, NDMA: 2.0 mmoles scavenger, CDTMPA, 60° C. then 75° C., total 4 hours; for Nitrosamine content, MDNA: methyldodecylnitrosamine; for Nitrosamine content, NDMA: nitrosodimethylamine; for reduction in nitrosamine formation: mixture already containing phosphonic acid chelating agent (CDTMPA), in words
Procedure: as §1, with “A chelating agent, DTPA, viz diethylenetriaminepentacarboxylic acid, 0.043 mmoles, was then introduced into the mixture to provide a mole ratio to the metal of about 4:1.” left out
as §2, §3

| SMILES | Nitrosamine content, total [1] | Nitrosamine content, MDNA [1] | Nitrosamine content, NDMA [1] | Nitrosamine content, total [2] | Nitrosamine content, MDNA [2] | Nitrosamine content, NDMA [2] | reduction in nitrosamine formation [1] | reduction in nitrosamine formation [2] |
| --- | --- | --- | --- | --- | --- | --- | --- | --- |
| COc1ccc(O)c(C(C)(C)C)c1 [BHA, butylated hydroxyanisole] | 779 ppb | 652 ppb | 127 ppb | 276 ppb | 151 ppb | 125 ppb |  |  |
| Cc1cc(C(C)(C)C)c(O)c(C(C)(C)C)c1 [BHT, 2,6-di-tert-butyl-4-methylphenol] | 1794 ppb | 1420 ppb | 374 ppb | 335 ppb | 212 ppb | 123 ppb |  |  |
| CCC(C)O (stereo not shown) [BuL, 2-butanol] |  |  |  | 1261 ppb | 582 ppb | 679 ppb |  |  |
| CCOC(=O)c1cc(O)c(O)c(O)c1 [EtG, ethyl gallate] | 407 ppb | 334 ppb | 73 ppb | 87 ppb | 57 ppb | 30 ppb | marked reduction in nitrosamine formation | marked reduction in nitrosamine formation |
| CCCOC(=O)c1cc(O)c(O)c(O)c1 [PrG, propyl gallate] | 308 ppb | 230 ppb | 78 ppb | 80 ppb | 59 ppb | 21 ppb | marked reduction in nitrosamine formation | marked reduction in nitrosamine formation |
| O=C(O)CCSCCC(=O)O [TPA, thiodipropionic acid] |  |  |  | 541 ppb | 444 ppb | 97 ppb |  |  |
